According to ChEMBL document CHEMBL1255532, “Cytotoxic cycloartane triterpene and rare isomeric bisclerodane diterpenes from the leaves of Polyalthia longifolia var. pendula” (Bioorg Med Chem Lett, 2010):
Values after ≈ are worked out from the molar mass of the structure shown.

What was measured:
MCF7 = assay: Cytotoxicity against human MCF7 cells after 48 hrs by SRB assay; format: functional, cell-based; conditions: MCF7, 48 h
C-33-A = assay: Cytotoxicity against human C33A cells after 48 hrs by SRB assay; format: functional, cell-based
A549 = assay: Cytotoxicity against human A549 cells after 48 hrs by SRB assay; format: functional, cell-based; conditions: A549, 48 h
KB = assay: Cytotoxicity against human KB cells after 48 hrs by SRB assay; format: functional, cell-based
[1] = Cytotoxicity against mouse NIH/3T3 cells after 48 hrs by SRB assay; format: cell-based; conditions: NIH3T3, 48 h

SMILES	IC50 (MCF7)	IC50 (C-33-A)	IC50 (A549)	IC50 (KB)	IC50 [1]
COc1cccc2c1C(=O)c1c(O)c3c(c(O)c1C2=O)C[C@@](O)(C(=O)CO)C[C@@H]3O[C@H]1C[C@H](N)[C@H](O)[C@H](C)O1 [DOXORUBICIN]	0.45 µg/mL (≈ 0.828 µM)	0.28 µg/mL (≈ 0.515 µM)	0.33 µg/mL (≈ 0.607 µM)	0.12 µg/mL (≈ 0.221 µM)	–
CC1=CCC[C@@H]2[C@@](C)(CCC3=CC(=O)N(/C=C(\CC[C@@]4(C)[C@H](C)CC[C@@]5(C)C(C)=CCC[C@H]45)CC(=O)O)C3=O)[C@H](C)CC[C@@]12C [LONGIMIDE A]	9.23 µg/mL (≈ 14.9 µM)	4.12 µg/mL (≈ 6.67 µM)	10.1 µg/mL (≈ 16.4 µM)	8.85 µg/mL (≈ 14.3 µM)	44.7 µg/mL (≈ 72.3 µM)
C=C(C(C)C)[C@@H](O)C[C@@H](C)[C@H]1[C@@H](O)C[C@@]2(C)[C@@H]3CC[C@H]4C(C)(C)[C@@H](O)CC[C@@]45C[C@@]35CC[C@]12C [LONGITRIOL]	30.9 µg/mL (≈ 65.3 µM)	10 µg/mL (≈ 21.2 µM)	13.2 µg/mL (≈ 27.9 µM)	24.1 µg/mL (≈ 51 µM)	> 50 µg/mL
